The text below walks through data of ChEMBL document CHEMBL1201862, “PubChem BioAssay data set” (2004).

Test systems include OVCAR-8; HT-29; 786-0; U-251; SF-268; Malme-3M; RPMI-8226; SF-295; ACHN; OVCAR-3; SNB-19; OVCAR-5; UACC-62; A549; CAKI-1; RXF 393.
Assay in all cases: inhibition of tumour cell growth, NCI panel, 48 h

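In this assay, cells in 96-well plates receive the compound at five concentrations for 48 hours. Endpoints are linearly interpolated between the surrounding concentrations. Abbreviation: GI50, concentration required for 50% inhibition of growth.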 Calls of active or inactive are those of the source. Rule as the data show it: active = GI50 up to about 1.1 µM and inactive = higher. Bounds are passed on as bounds.

`Sc1nnc(COc2ccc(Cl)cc2)o1`: the GI50 with OVCAR-8, in the assay with HT-29, with 786-0, with U-251, with SF-268 and in the assay with Malme-3M was > 100 µM (inactive) each time. For the same molecule, the GI50 in the assay with RPMI-8226, in the assay with SF-295, with ACHN, with OVCAR-3, in the assay on SNB-19 and in the assay with OVCAR-5 was > 100 µM (inactive) each time. In addition, the GI50 in the assay with UACC-62, in the assay on A549 and with CAKI-1 was > 100 µM (inactive) in each case.
Regarding `COc1cc(-c2cc(O)c3ccccc3n2)cc(OC)c1OC`, the GI50 in the assay with OVCAR-8, in the assay with HT-29, with 786-0, with U-251, in the assay with SF-268 and in the assay with Malme-3M was > 75 µM (inactive) throughout. The GI50 with RPMI-8226, with SF-295, in the assay on ACHN, in the assay with OVCAR-3, in the assay with SNB-19 and in the assay on UACC-62 was > 75 µM (inactive) throughout. Also, the GI50 with A549 and in the assay with RXF 393 was > 75 µM (inactive) throughout.
Consider `CCC(C)(C)NC1=C(NC(C)=O)C(=O)c2ccccc2C1=O`, for which the GI50 was 54.8 µM (inactive) with OVCAR-8; > 75 µM (inactive) in the assay on HT-29; > 75 µM (inactive) in the assay on 786-0; 36.1 µM (inactive) in the assay with U-251; > 75 µM (inactive) in the assay with SF-268; 28.7 µM (inactive) in the assay with Malme-3M. Further, the GI50 is > 75 µM (inactive) in the assay on SF-295; 15.2 µM (inactive) in the assay on ACHN; 34.8 µM (inactive) with OVCAR-3; > 75 µM (inactive) with SNB-19; 24.9 µM (inactive) in the assay on UACC-62; > 75 µM (inactive) in the assay with A549. Moreover, the GI50 with RXF 393 is 25 µM (inactive).
Regarding `CC1(C)OCC(C(O)C2OC(C)(C)OC2/C=N\O)O1` (stereo not given), the GI50 in the assay with OVCAR-8, in the assay with HT-29, with 786-0, with U-251, in the assay on SF-268 and with Malme-3M was > 100 µM (inactive) each time. Moreover, the GI50 in the assay with RPMI-8226, with SF-295, with ACHN, in the assay on OVCAR-3, in the assay on SNB-19 and in the assay on OVCAR-5 was > 100 µM (inactive) throughout. Further, the GI50 with A549 and with RXF 393 was > 100 µM (inactive) throughout.
Consider `C[C@]12CCC(=O)C=C1CC[C@@H]1[C@@H]2[C@@H](O)C[C@@]2(C)[C@H]1CC[C@]2(O)C(=O)COC(=O)COCC(=O)O`, for which the GI50 with OVCAR-8, in the assay with HT-29, in the assay on 786-0, in the assay with U-251, in the assay with SF-268 and in the assay with Malme-3M was > 100 µM (inactive) each time. Besides, the GI50 with RPMI-8226, in the assay with SF-295, in the assay with ACHN, with OVCAR-3, in the assay on SNB-19 and in the assay on OVCAR-5 was > 100 µM (inactive) in each case. The GI50 in the assay with UACC-62, in the assay with A549 and in the assay on CAKI-1 was > 100 µM (inactive) each time.
As for `CCCCCCCCCCCCCCC(O)C1CCC(C(O)CCC(O)CCCCCC(O)CC2=CC(C)OC2=O)O1` (stereo not given), the GI50 with OVCAR-8 was 2.07 µM (inactive); in the assay on HT-29 it was 1.82 µM (inactive); with 786-0, 2.43 µM (inactive); in the assay on U-251, 2.74 µM (inactive); with SF-268, 0.832 µM (active); with Malme-3M, 1.58 µM (inactive). Moreover, the GI50 with RPMI-8226 is 0.187 µM (active); in the assay with SF-295, 1.26 µM (inactive); with OVCAR-3 it was 1.13 µM (inactive); in the assay with SNB-19 it was 1.81 µM (inactive); with OVCAR-5, 4.4 µM (inactive); in the assay with UACC-62, 2.33 µM (inactive). Also, the GI50 was 2.2 µM (inactive) in the assay on A549 and 8.13 µM (inactive) in the assay on CAKI-1.
Regarding `O=C(C/C(CCC(=O)N(Cc1ccccc1)Cc1ccccc1)=N/Nc1ccc([N+](=O)[O-])cc1[N+](=O)[O-])c1ccccc1`, the GI50 was > 100 µM (inactive) with OVCAR-8; 54.1 µM (inactive) in the assay with HT-29; > 100 µM (inactive) in the assay with 786-0; > 100 µM (inactive) in the assay with U-251; 38.8 µM (inactive) with SF-268; > 100 µM (inactive) in the assay with Malme-3M. Further, the GI50 is 81.1 µM (inactive) with RPMI-8226; > 100 µM (inactive) with SF-295; > 100 µM (inactive) with OVCAR-3; > 100 µM (inactive) in the assay with SNB-19; > 100 µM (inactive) in the assay with OVCAR-5; 25.9 µM (inactive) in the assay on UACC-62. In the assay with A549, the GI50 was 86.1 µM (inactive).
For `OCC1=CC(NC2CC(CO)C(O)C(O)C2O)C(O)C(O)C1O` (stereo not given), the GI50 in the assay with OVCAR-8, in the assay on HT-29, in the assay on 786-0, in the assay with U-251, in the assay with Malme-3M and in the assay on RPMI-8226 was > 100 µM (inactive) each time. Also, the GI50 in the assay with SF-295, in the assay with ACHN, with OVCAR-3, in the assay on SNB-19, in the assay on UACC-62 and in the assay on A549 was > 100 µM (inactive) throughout. Besides, in the assay with RXF 393, the GI50 was > 100 µM (inactive).
For the molecule `Cc1c2ccncc2c(C)c2c1[nH]c1ccc(O)c(OCC(F)(F)F)c12`, the GI50 in the assay on OVCAR-8 was 3.03 µM (inactive); in the assay on HT-29 it was > 7.5 µM (inactive); in the assay on 786-0, 2.01 µM (inactive); with U-251 it was 2.7 µM (inactive); in the assay with SF-268, 8.67 µM (inactive); with Malme-3M, 11.9 µM (inactive). Moreover, the GI50 with RPMI-8226 was 2.1 µM (inactive); with SF-295 it was 5.21 µM (inactive); with OVCAR-3 it was 7.8 µM (inactive); in the assay on SNB-19, 2.11 µM (inactive); with OVCAR-5, 12.6 µM (inactive); with UACC-62 it was 10.5 µM (inactive). Besides, the figures for the GI50 with A549 and with CAKI-1 were 3.9 µM (inactive) and 9.62 µM (inactive), respectively.
Turning to `Cn1c(=O)nc2n(-c3ccc(O)cc3)c3ccccc3nc-2c1=O`, the GI50 in the assay on OVCAR-8 was 44.5 µM (inactive); in the assay with HT-29 it was > 100 µM (inactive); in the assay with 786-0, 17.3 µM (inactive); in the assay with U-251, 14 µM (inactive); in the assay on SF-268, 23.2 µM (inactive); with Malme-3M, 18.9 µM (inactive). The GI50 was 63.7 µM (inactive) with RPMI-8226; > 100 µM (inactive) in the assay with SF-295; 2.78 µM (inactive) in the assay on ACHN; 17.9 µM (inactive) in the assay on OVCAR-3; > 100 µM (inactive) in the assay with SNB-19; > 100 µM (inactive) with OVCAR-5. Moreover, the GI50 in the assay with UACC-62 is 16.4 µM (inactive); with A549 it was 36.7 µM (inactive); in the assay with CAKI-1 it was 13.7 µM (inactive).
